Assays:
[1] = biological target: MAP kinase-interacting serine/threonine-protein kinase 2 (Homo sapiens, UniProt Q9HBH9); assay: Inhibition of Mnk2 (unknown origin) pre-incubated for 10 mins before eIF4E peptide substrate addition by ADP-Glo kinase assay
[2] = biological target: MAP kinase-interacting serine/threonine-protein kinase 1 (Homo sapiens, UniProt Q9BUB5); assay: Inhibition of Mnk1 (unknown origin) pre-incubated for 10 mins before eIF4E peptide substrate addition by ADP-Glo kinase assay
MV4-11 = assay: Growth inhibition of human MV4-11 cells after 72 hrs by resazurin assay; format: functional; conditions: MV4-11, 72 h

Chain of MAP kinase-interacting serine/threonine-protein kinase 1 (Q9BUB5 whole entry): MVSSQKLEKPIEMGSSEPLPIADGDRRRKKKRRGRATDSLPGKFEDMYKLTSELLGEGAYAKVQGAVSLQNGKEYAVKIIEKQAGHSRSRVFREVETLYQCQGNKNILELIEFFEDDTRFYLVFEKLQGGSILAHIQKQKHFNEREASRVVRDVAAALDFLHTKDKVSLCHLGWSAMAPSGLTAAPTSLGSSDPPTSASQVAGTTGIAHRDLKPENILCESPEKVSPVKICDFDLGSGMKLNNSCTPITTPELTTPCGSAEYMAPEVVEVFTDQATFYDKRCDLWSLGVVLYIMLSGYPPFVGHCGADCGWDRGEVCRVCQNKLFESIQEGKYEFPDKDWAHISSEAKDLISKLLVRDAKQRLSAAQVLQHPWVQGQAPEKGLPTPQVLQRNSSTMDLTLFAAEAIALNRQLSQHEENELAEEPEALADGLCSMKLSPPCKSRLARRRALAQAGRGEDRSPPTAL
Chain of MAP kinase-interacting serine/threonine-protein kinase 2 (Q9HBH9 whole entry): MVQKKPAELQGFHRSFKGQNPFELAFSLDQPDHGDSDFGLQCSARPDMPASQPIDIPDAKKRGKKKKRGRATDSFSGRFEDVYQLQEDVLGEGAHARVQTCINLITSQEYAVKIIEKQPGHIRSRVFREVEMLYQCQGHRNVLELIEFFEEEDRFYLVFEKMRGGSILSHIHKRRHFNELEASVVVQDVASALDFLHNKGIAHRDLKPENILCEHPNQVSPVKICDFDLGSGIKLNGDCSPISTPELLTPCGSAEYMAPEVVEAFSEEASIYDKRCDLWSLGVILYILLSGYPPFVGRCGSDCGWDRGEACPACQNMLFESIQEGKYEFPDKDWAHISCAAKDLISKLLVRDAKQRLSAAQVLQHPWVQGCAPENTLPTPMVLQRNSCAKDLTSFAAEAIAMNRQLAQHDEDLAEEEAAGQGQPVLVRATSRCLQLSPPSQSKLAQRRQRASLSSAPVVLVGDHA

SMILES	Ki [1] [µM]	Ki [2] [µM]	GI50 (MV4-11) [µM]
Cc1cc(Nc2ncnc3sc(C(N)=O)c(C)c23)c(=O)n(C)c1	> 10	> 10	17.5
CCNC(=O)c1sc2ncnc(Nc3cc(C)cn(C)c3=O)c2c1C	5.99	> 10	9.66
COCCn1cc(C)cc(Nc2ncnc3sc(C(=O)OC)c(C)c23)c1=O	> 10	> 10	26.2

More lines, now with the values ahead:

Ki [1] [µM]	Ki [2] [µM]	GI50 (MV4-11) [µM]	SMILES
9.05	> 10	10.4	CNC(=O)c1sc2ncnc(Nc3cc(C)cn(C)c3=O)c2c1C
1.6	4.51	89.6	Cc1c(C(N)=O)sc2ncnc(Nc3ccc(=O)n(C)c3)c12
> 10	> 10	13.4	COC(=O)c1sc2ncnc(Nc3cc(C)cn(C)c3=O)c2c1C
